Values of other authors, collected in patent US9220759B2, “Treatment of diabetic patients with a drug eluting stent and adjunctive therapy” (Abbott Cardiovascular Systems Inc., priority 2012, dated 2015).

Tested on: restenosis after bare metal stent implantation
Conditions: diabetic patients prescribed the drug, compared to the control group, study of limited size

CN(CCOc1ccc(CC2SC(=O)NC2=O)cc1)c1ccccn1 (stereo not shown) [rosiglitzone, rosiglitazone]
rate of restenosis: reduction in the rate of restenosis
